Measurements taken from patent publication US5948816A, “4-substituted-2,7-dideoxy-7-fluoro-2,3-didehydro-sialic acid compounds” (priority 1996, dated 1999).
Counter-ions that a name gives are not always drawn.

Molecular target: sialidase (Influenza A virus, UniProt P03468)
Assay: Influenza virus sialidase inhibition (free sialic acid released from α 2-3 sialyl-lactose, pH 5.2, 37° C., densitometry)
Format: biochemical, Influenza virus A/PR/8/34
Details: for IC50: α 2-3 sialyl-lactose substrate, pH 5.2, 37° C., 10 minutes

Chain of sialidase (P03468 whole entry): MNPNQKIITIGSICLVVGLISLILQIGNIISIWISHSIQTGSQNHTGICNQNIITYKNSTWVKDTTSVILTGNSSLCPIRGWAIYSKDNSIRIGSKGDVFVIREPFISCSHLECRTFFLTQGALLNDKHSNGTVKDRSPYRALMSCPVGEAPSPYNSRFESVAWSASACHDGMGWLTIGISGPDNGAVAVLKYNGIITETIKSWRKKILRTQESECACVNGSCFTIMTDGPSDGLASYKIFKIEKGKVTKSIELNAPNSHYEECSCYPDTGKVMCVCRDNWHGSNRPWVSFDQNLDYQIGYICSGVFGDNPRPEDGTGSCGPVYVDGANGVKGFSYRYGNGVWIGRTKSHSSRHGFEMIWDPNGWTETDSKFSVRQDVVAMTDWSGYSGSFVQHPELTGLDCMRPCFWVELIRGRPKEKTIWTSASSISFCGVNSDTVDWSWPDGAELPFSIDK

Structure (SMILES) | IC50 [µM] | sialidase inhibitory activity
CC(=O)N[C@H]1[C@H]([C@H](O)[C@H](O)CO)OC(C(=O)O)=C[C@@H]1N [4-Amino-2,3-didehydrosialic acid, 4-amino-2,3-didehydrosialic acid] | 1.5 | –
CC(=O)N[C@H]1[C@H]([C@H](F)[C@H](O)CO)OC(C(=O)O)=C[C@@H]1N [5-Acetamide-4-amino-2,6-anhydro-7-fluoro-3,4,5,7-tetradeoxy-D-glycero-D-galacto-non-2-enonic acid Sodium salt] | 0.5 | very potent
CC(=O)N[C@H]1[C@H]([C@H](F)[C@H](O)CO)OC(C(=O)O)=C[C@@H]1O [7-Fluoro-2,3-didehydrosialic acid] | 2.9 | –
